This assay deals with human P2X3 receptor (Homo sapiens (Human), UniProt P56373). As to the kind of experiment: Evaluation of human P2X3 receptor inhibitory activity (Fluo-3 calcium fluorescence, FDSS 3000, ATP stimulation).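 Note: stimulus was 50 nM ATP with fluorescence followed for 3 min, and the response per well was peak post-ATP fluorescence divided by the reading at measurement start.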 The format is cell-based.
[1] abbreviates: C6BU-1 cells stably expressing human P2X3 receptor.
Where [2] appears, read: human P2X3 receptor, Test Example 1.

SMILES strings stand for the structures.

Sequence of human P2X3 receptor (P56373 whole entry): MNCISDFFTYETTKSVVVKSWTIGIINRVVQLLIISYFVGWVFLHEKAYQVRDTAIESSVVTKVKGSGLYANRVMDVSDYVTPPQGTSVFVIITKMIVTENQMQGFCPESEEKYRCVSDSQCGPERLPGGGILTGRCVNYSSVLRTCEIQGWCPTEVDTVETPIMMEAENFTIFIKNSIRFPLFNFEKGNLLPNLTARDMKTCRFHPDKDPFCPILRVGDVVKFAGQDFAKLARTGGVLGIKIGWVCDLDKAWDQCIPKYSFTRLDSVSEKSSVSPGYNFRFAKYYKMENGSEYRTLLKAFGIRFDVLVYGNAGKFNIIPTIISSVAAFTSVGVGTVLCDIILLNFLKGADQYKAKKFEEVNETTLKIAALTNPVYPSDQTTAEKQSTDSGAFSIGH

For the molecule `COC(=O)[C@@H](C)Cn1c(=O)[nH]/c(=N\c2ccc(OC)c(C(F)(F)F)c2)n(Cc2ccc(Cl)cc2)c1=O` [Compound I-0796], the IC50 under setting [1] is 386 nM. `COc1ccc(/N=c2\[nH]c(=O)n(C[C@H](C)C(=O)O)c(=O)n2Cc2ccc(Cl)cc2)cc1C(F)(F)F` [Compound I-0797]: under setting [1], the IC50 was found to be 701 nM. `CC[C@@H](CC(=O)O)n1c(=O)[nH]/c(=N\c2ccc(OC(C)C)c(C)c2)n(Cc2ccc(Cl)cc2)c1=O` [Compound I-0798]: under setting [1], the IC50 amounted to 465 nM. With `CC[C@H](CC(=O)O)n1c(=O)[nH]/c(=N\c2ccc(OC(C)C)c(C)c2)n(Cc2ccc(Cl)cc2)c1=O` [Compound I-0799], the IC50 under setting [1] was 281 nM. In the case of `Cc1cc(/N=c2\[nH]c(=O)n(Cc3cccc(C(=O)O)n3)c(=O)n2Cc2ccc(Cl)cc2)ccc1OC(C)C` [Compound I-0801], the IC50 under setting [1] turned out to be 10 nM. On to `Cc1cc(/N=c2\[nH]c(=O)n(Cc3cc(C(=O)O)no3)c(=O)n2Cc2ccc(Cl)cc2)ccc1OC(C)C` [Compound I-0802], for which the IC50 under setting [1] stood at 21 nM. `Cc1cc(/N=c2\[nH]c(=O)n(C(C)(C)CC(=O)O)c(=O)n2Cc2ccc(Cl)cc2)ccc1OC(C)C` [Compound I-0804]: the half-maximal inhibitory concentration (IC50) under setting [1] was found to be 132 nM. `CCOC(=O)CC(C)(C)n1c(=O)[nH]/c(=N\c2ccc(OC(C)C)c(C)c2)n(Cc2ccc(Cl)cc2)c1=O` [Compound I-0805]: under setting [1], the IC50 is 29 nM. As for `COC(=O)[C@H](Cn1c(=O)[nH]/c(=N\c2ccc(OC(C)C)c(C)c2)n(Cc2ccc(Cl)cc2)c1=O)OC` [Compound I-0806, (S)-1-(4-chlorobenzyl)-6-(3-mehyl-4-isopropoxyphenylimino)-3-(2-methoxycarbonyl-2-methoxy-ethyl)-1,3,5-triazinane-2,4-dion], the IC50 under setting [1] worked out at 12 nM.

Take `CO[C@@H](Cn1c(=O)[nH]/c(=N\c2ccc(OC(C)C)c(C)c2)n(Cc2ccc(Cl)cc2)c1=O)C(=O)O` [Compound I-0807, (S)-1-(4-chlorobenzyl)-6-(3-mehyl-4-isopropoxyphenylimino)-3-(2-hydroxycarbonyl-2-methoxyethyl)-1,3,5-triazinane-2,4-dion]: under setting [1], the IC50 was 13 nM. For the molecule `Cc1cc(/N=c2\[nH]c(=O)n([C@@H]3CCOC3=O)c(=O)n2Cc2ccc(Cl)cc2)ccc1OC(C)C` [Compound I-0808], the IC50 under setting [1] amounted to 203 nM. On to `COC(=O)[C@H](C)[C@H](C)n1c(=O)[nH]/c(=N\c2ccc(OC(C)C)c(C)c2)n(Cc2ccc(Cl)cc2)c1=O` [Compound I-0809], for which, under setting [1], the IC50 is 34 nM. As to `CCOC(=O)CC(C)(C)n1c(=O)[nH]/c(=N\c2ccc(OC(C)C)c(Cl)c2)n(Cc2ccc(Cl)cc2)c1=O` [Compound I-0810], the IC50 under setting [1] came to 16 nM. Still for that read-out and setting: the figure for `COC(=O)[C@@H](C)[C@@H](C)n1c(=O)[nH]/c(=N\c2ccc(OC(C)C)c(C)c2)n(Cc2ccc(Cl)cc2)c1=O` [Compound I-0811] is 40 nM. Turning to `COC(=O)[C@@H](C)Cn1c(=O)[nH]/c(=N\c2ccc(OCC(C)C)cc2)n(Cc2ccc(C)cc2)c1=O` [Compound I-0812], the IC50 under setting [1] was 33 nM. Take `CCCCOc1ccc(/N=c2\[nH]c(=O)n(C[C@H](C)C(=O)OC)c(=O)n2Cc2ccc(Cl)cc2)cc1` [Compound I-0814]: the IC50 under setting [1] turned out to be 17 nM. `CCc1ccc(/N=c2\[nH]c(=O)n(C[C@H](C)C(=O)OC)c(=O)n2Cc2ccc(Cl)cc2)cc1C` [Compound I-0815]: under setting [1], the half-maximal inhibitory concentration (IC50) was determined as 189 nM.

As for `CCCCOc1ccc(/N=c2\[nH]c(=O)n(C[C@H](C)C(=O)OC)c(=O)n2Cc2ccc(C)cc2)cc1` [Compound I-0816], under setting [1], the IC50 was 37 nM. Take `CC(C)Oc1ccc(/N=c2\[nH]c(=O)n(C(C)(C)CC(=O)O)c(=O)n2Cc2ccc(Cl)cc2)cc1Cl` [Compound I-0817]: under setting [1], the IC50 came to 27 nM.

On to `CCCCOc1ccc(/N=c2\[nH]c(=O)n(C[C@H](C)C(=O)O)c(=O)n2Cc2ccc(Cl)cc2)cc1` [Compound I-0819], for which the IC50 under setting [1] came out at 22 nM.

For the molecule `CCCCOc1ccc(/N=c2\[nH]c(=O)n(C[C@H](C)C(=O)O)c(=O)n2Cc2ccc(C)cc2)cc1` [Compound I-0820], the half-inhibitory concentration (IC50) under setting [1] was determined as 35 nM. Regarding `CCCOc1ccc(/N=c2\[nH]c(=O)n(C(C)(C)CC(=O)OCC)c(=O)n2Cc2ccc(Cl)cc2)cc1` [Compound I-0821], under setting [1], the IC50 was found to be 50 nM. In the case of `CCOC(=O)CC(C)(C)n1c(=O)[nH]/c(=N\c2ccc(OC(C)C)c(F)c2)n(Cc2ccc(Cl)cc2)c1=O` [Compound I-0822], under setting [1], the IC50 worked out at 26 nM. On to `CC[C@@H](C)Oc1ccc(/N=c2\[nH]c(=O)n(C[C@H](C)C(=O)OC)c(=O)n2Cc2ccc(C)cc2)cc1C` [Compound I-0823], for which the IC50 under setting [2] was 11 nM. Still for that read-out and setting: the figure for `CC[C@@H](C)Oc1ccc(/N=c2\[nH]c(=O)n(C[C@H](C)C(=O)OC)c(=O)n2Cc2ccc(C)cc2)cc1` [Compound I-0824] is 18 nM. With `Cc1cc(/N=c2\[nH]c(=O)n([C@H](C)[C@H](C)C(=O)O)c(=O)n2Cc2ccc(Cl)cc2)ccc1OC(C)C` [Compound I-0825], the IC50 under setting [2] was determined as 25 nM.

Take `Cc1ccc(Cn2c(=O)n(C[C@H](C)C(=O)O)c(=O)[nH]/c2=N\c2ccc(OCC(C)C)cc2)cc1` [Compound I-0827]: under setting [2], the IC50 stood at 26 nM.

On to `CCCOc1ccc(/N=c2\[nH]c(=O)n(C[C@H](C)C(=O)O)c(=O)n2Cc2ccc(C)cc2)cc1` [Compound I-0828], for which the IC50 under setting [2] came to 25 nM. `CCCOc1ccc(/N=c2\[nH]c(=O)n(C(C)(C)CC(=O)O)c(=O)n2Cc2ccc(Cl)cc2)cc1` [Compound I-0829]: the IC50 under setting [2] was 216 nM. Take `CC(C)Oc1ccc(/N=c2\[nH]c(=O)n(C(C)(C)CC(=O)O)c(=O)n2Cc2ccc(Cl)cc2)cc1F` [Compound I-0830]: the IC50 under setting [2] worked out at 89 nM. Turning to `COC(=O)[C@@H](C)Cn1c(=O)[nH]/c(=N\c2ccc(OCC(C)C)c(C)c2)n(Cc2ccc(Cl)cc2)c1=O` [Compound I-0831], under setting [2], the IC50 came to 77 nM. With `COC(=O)[C@@H](C)Cn1c(=O)[nH]/c(=N\c2ccc(OCC(C)C)c(C)c2)n(Cc2ccc(C)cc2)c1=O` [Compound I-0832], under setting [2], the IC50 worked out at 103 nM.

For `COC(=O)[C@@H](C)Cn1c(=O)[nH]/c(=N\c2ccc(OCC3CC3)cc2)n(Cc2ccc(Cl)cc2)c1=O` [Compound I-0833], under setting [2], the IC50 stood at 15 nM. With `COC(=O)[C@@H](C)Cn1c(=O)[nH]/c(=N\c2ccc(OCC3CC3)cc2)n(Cc2ccc(C)cc2)c1=O` [Compound I-0834], the IC50 under setting [2] was found to be 18 nM. `Cc1cc(/N=c2\[nH]c(=O)n(C[C@H](C)C(=O)O)c(=O)n2Cc2ccc(Cl)cc2)ccc1OCC(C)C` [Compound I-0835]: the IC50 under setting [2] was determined as 78 nM. Turning to `Cc1ccc(Cn2c(=O)n(C[C@H](C)C(=O)O)c(=O)[nH]/c2=N\c2ccc(OCC(C)C)c(C)c2)cc1` [Compound I-0836], the IC50 under setting [2] came out at 95 nM. Turning to `Cc1ccc(Cn2c(=O)n(C[C@H](C)C(=O)O)c(=O)[nH]/c2=N\c2ccc(OCC3CC3)cc2)cc1` [Compound I-0838], the IC50 under setting [2] is 33 nM. As to `CCCOc1ccc(/N=c2\[nH]c(=O)n(C[C@H](C)C(=O)OC)c(=O)n2Cc2ccc(C)cc2)cc1Cl` [Compound I-0839], under setting [2], the IC50 was 12 nM.

On to `CCCOc1ccc(/N=c2\[nH]c(=O)n(C[C@H](C)C(=O)O)c(=O)n2Cc2ccc(C)cc2)cc1Cl` [Compound I-0840], for which, under setting [2], the half-inhibitory concentration (IC50) turned out to be 17 nM. Regarding `COC(=O)[C@@H](C)Cn1c(=O)[nH]/c(=N\c2ccc(C)c(C(F)(F)F)c2)n(Cc2ccc(Cl)cc2)c1=O` [Compound I-0841], the IC50 under setting [2] was 150 nM.

The IC50 is the concentration that gives 50% inhibition.

These data come from US9718790B2, “Triazine derivative and pharmaceutical composition having an analgesic activity comprising the same” (SHIONOGI & CO., LTD., priority 2010, dated 2017).
